PubChem BioAssay AID2060605 (Molecular Pharmacology Branch, DTP, NCI, 2025)
pIC50: −log10 of the molar value.

Tested on: 947758-054-R-J2-PDC spheroid growth, percent test/control
Test: Anticancer human tumor 947758-054-R-J2-PDC patient-derived colon adenocarcinoma cell line growth inhibition [CLK]
Details: spheroids with HUVEC and MSC; for pIC50: curve of first compound; for viability, T/C: stronger effect = lower value; active = viability on the fitted dose curve at most 10% of control; inactive = the rest
Procedure, shortened: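 Patient-derived tumor cells grown as complex spheroids with HUVEC endothelial cells and mesenchymal stem cells, treated with drug combinations. Concentrations descend in half-log steps from near clinical Cmax, or from 10 microM if Cmax unknown.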

[1] = second compound 0.0316 µM, first compound 0.0316 µM
[2] = second compound 0.0316 µM, first compound 0.1 µM
[3] = second compound 0.0316 µM, first compound 0.316 µM
[4] = second compound 0.0316 µM, first compound 1 µM
[5] = second compound 0.0316 µM, first compound 3.16 µM
[6] = second compound 0.0316 µM, first compound 10 µM
[7] = second compound 0.1 µM, first compound 0.0316 µM
[8] = second compound 0.1 µM, first compound 0.1 µM
[9] = second compound 0.1 µM, first compound 0.316 µM
[10] = second compound 0.1 µM, first compound 1 µM
[11] = second compound 0.1 µM, first compound 3.16 µM
[12] = second compound 0.1 µM, first compound 10 µM
[13] = second compound 0.316 µM, first compound 0.0316 µM
[14] = second compound 0.316 µM, first compound 0.1 µM
[15] = second compound 0.316 µM, first compound 0.316 µM
[16] = second compound 0.316 µM, first compound 1 µM
[17] = second compound 0.316 µM, first compound 3.16 µM
[18] = second compound 0.316 µM, first compound 10 µM
[19] = second compound 1 µM, first compound 0.0316 µM
[20] = second compound 1 µM, first compound 0.1 µM
[21] = second compound 1 µM, first compound 0.316 µM
[22] = second compound 1 µM, first compound 1 µM
[23] = second compound 1 µM, first compound 3.16 µM
[24] = second compound 1 µM, first compound 10 µM
[25] = second compound 3.16 µM, first compound 0.0316 µM
[26] = second compound 3.16 µM, first compound 0.1 µM
[27] = second compound 3.16 µM, first compound 0.316 µM
[28] = second compound 3.16 µM, first compound 1 µM
[29] = second compound 3.16 µM, first compound 3.16 µM
[30] = second compound 3.16 µM, first compound 10 µM
[31] = second compound 10 µM, first compound 0.0316 µM
[32] = second compound 10 µM, first compound 0.1 µM
[33] = second compound 10 µM, first compound 0.316 µM
[34] = second compound 10 µM, first compound 1 µM
[35] = second compound 10 µM, first compound 3.16 µM
[36] = second compound 10 µM, first compound 10 µM
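Note: spheroids exposed to compounds for one week before readout.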
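Throughout, for viability, T/C: 100% = DMSO vehicle control wells.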

CC(=O)O[C@H]1C(=O)[C@@]2(C)[C@H]([C@H](OC(=O)c3ccccc3)[C@]3(O)C[C@H](OC(=O)[C@H](O)[C@@H](NC(=O)c4ccccc4)c4ccccc4)C(C)=C1C3(C)C)[C@]1(OC(C)=O)CO[C@@H]1C[C@@H]2O + CN1CCN(c2cc(C(=O)Nc3cc4cc(-c5cnn(C)c5)ccc4cn3)ccn2)CC1
active: viability, T/C [1] 7.4% | viability, T/C [2] 6.03% | viability, T/C [3] 4.94% | viability, T/C [4] 5.77% | viability, T/C [5] 6.99% | viability, T/C [6] 11.8% | viability, T/C [7] 5.33% | viability, T/C [8] 5.11% | viability, T/C [9] 4.6% | viability, T/C [10] 4.61% | viability, T/C [11] 5.41% | viability, T/C [12] 8.84% | viability, T/C [13] 1.4% | viability, T/C [14] 1.86% | viability, T/C [15] 2.27% | viability, T/C [16] 1.92% | viability, T/C [17] 2.04% | viability, T/C [18] 2.67% | viability, T/C [19] 0.1% | viability, T/C [20] 0.12% | viability, T/C [21] 0.3% | viability, T/C [22] 0.08% | viability, T/C [23] 0.09% | viability, T/C [24] 0.09% | viability, T/C [25] 0.16% | viability, T/C [26] 0.22% | viability, T/C [27] 0.21% | viability, T/C [28] 0.14% | viability, T/C [29] 1.02% | viability, T/C [30] 0.58% | viability, T/C [31] 1.41% | viability, T/C [32] 0.29% | viability, T/C [33] 0.23% | viability, T/C [34] 0.25% | viability, T/C [35] 0.27% | viability, T/C [36] 0.7%
> 7.50: pIC50 (second compound 0.0316 µM) | pIC50 (second compound 0.1 µM) | pIC50 (second compound 0.316 µM) | pIC50 (second compound 1 µM) | pIC50 (second compound 3.16 µM) | pIC50 (second compound 10 µM)

CCc1c2c(nc3ccc(O)cc13)-c1cc3c(c(=O)n1C2)COC(=O)[C@]3(O)CC + CN1CCN(c2cc(C(=O)Nc3cc4cc(-c5cnn(C)c5)ccc4cn3)ccn2)CC1
> 8.50: pIC50 (second compound 0.316 µM) | pIC50 (second compound 1 µM) | pIC50 (second compound 3.16 µM) | pIC50 (second compound 10 µM)
inactive: viability, T/C (second compound 0.0316 µM, first compound 0.00316 µM) 98.9% | viability, T/C (second compound 0.0316 µM, first compound 0.01 µM) 32.5% | viability, T/C [1] 22.7% | viability, T/C [2] 16.4% | viability, T/C (second compound 0.1 µM, first compound 0.00316 µM) 51% | viability, T/C (second compound 0.1 µM, first compound 0.01 µM) 29.2% | viability, T/C [7] 19.8%
8.49: pIC50 (second compound 0.1 µM)
active: viability, T/C [3] 6.6% | viability, T/C [4] 3.27% | viability, T/C [8] 9.54% | viability, T/C [9] 3.86% | viability, T/C [10] 2.52% | viability, T/C (second compound 0.316 µM, first compound 0.00316 µM) 1.89% | viability, T/C (second compound 0.316 µM, first compound 0.01 µM) 2.41% | viability, T/C [13] 1.16% | viability, T/C [14] 1.27% | viability, T/C [15] 0.15% | viability, T/C [16] 0.45% | viability, T/C (second compound 1 µM, first compound 0.00316 µM) 0.1% | viability, T/C (second compound 1 µM, first compound 0.01 µM) 0.11% | viability, T/C [19] 0.12% | viability, T/C [20] 0.09% | viability, T/C [21] 1.68% | viability, T/C [22] 0.14% | viability, T/C (second compound 3.16 µM, first compound 0.00316 µM) 0.18% | viability, T/C (second compound 3.16 µM, first compound 0.01 µM) 0.26% | viability, T/C [25] 0.41% | viability, T/C [26] 0.63% | viability, T/C [27] 0.68% | viability, T/C [28] 1.64% | viability, T/C (second compound 10 µM, first compound 0.00316 µM) 0.21% | viability, T/C (second compound 10 µM, first compound 0.01 µM) 0.3% | viability, T/C [31] 0.79% | viability, T/C [32] 1.24% | viability, T/C [33] 1.43% | viability, T/C [34] 1.35%
8.11: pIC50 (second compound 0.0316 µM)

COc1ccc([C@@H](O)c2cc(-c3ncnc4cc(N5CCOCC5)ccc34)c(F)cc2Cl)nn1 + CN1CCN(c2cc(C(=O)Nc3cc4cc(-c5cnn(C)c5)ccc4cn3)ccn2)CC1
< 5.00: pIC50 (second compound 0.0316 µM)
> 7.50: pIC50 (second compound 0.316 µM) | pIC50 (second compound 1 µM) | pIC50 (second compound 3.16 µM) | pIC50 (second compound 10 µM)
inactive: viability, T/C [1] 126% | viability, T/C [2] 134% | viability, T/C [3] 157% | viability, T/C [4] 163% | viability, T/C [5] 165% | viability, T/C [6] 64% | viability, T/C [7] 119% | viability, T/C [8] 137% | viability, T/C [9] 111% | viability, T/C [10] 92.1% | viability, T/C [11] 59.8% | viability, T/C [12] 25.2%
active: viability, T/C [13] 1.95% | viability, T/C [14] 5% | viability, T/C [15] 1.88% | viability, T/C [16] 2.42% | viability, T/C [17] 2.05% | viability, T/C [18] 1.12% | viability, T/C [19] 0.11% | viability, T/C [20] 1.62% | viability, T/C [21] 0.17% | viability, T/C [22] 0.08% | viability, T/C [23] 1.67% | viability, T/C [24] 0.46% | viability, T/C [25] 0.13% | viability, T/C [26] 1.34% | viability, T/C [27] 0.63% | viability, T/C [28] 0.14% | viability, T/C [29] 0.18% | viability, T/C [30] 0.3% | viability, T/C [31] 0.26% | viability, T/C [32] 0.42% | viability, T/C [33] 0.26% | viability, T/C [34] 0.21% | viability, T/C [35] 0.3% | viability, T/C [36] 0.88%
5.37: pIC50 (second compound 0.1 µM)

COc1cccc2c1C(=O)c1c(O)c3c(c(O)c1C2=O)CC(O)(C(=O)CO)CC3OC1CC(N)C(O)C(C)O1 (stereo not drawn) + CN1CCN(c2cc(C(=O)Nc3cc4cc(-c5cnn(C)c5)ccc4cn3)ccn2)CC1
> 7.50: pIC50 (second compound 0.1 µM) | pIC50 (second compound 0.316 µM) | pIC50 (second compound 1 µM) | pIC50 (second compound 3.16 µM) | pIC50 (second compound 10 µM)
7.04: pIC50 (second compound 0.0316 µM)
active: viability, T/C [4] 4.76% | viability, T/C [5] 0.5% | viability, T/C [6] 4.61% | viability, T/C [10] 1.67% | viability, T/C [11] 0.35% | viability, T/C [12] 7.75% | viability, T/C [13] 1.3% | viability, T/C [14] 1.49% | viability, T/C [15] 0.27% | viability, T/C [16] 0.21% | viability, T/C [17] 1.68% | viability, T/C [18] 8.73% | viability, T/C [19] 0.12% | viability, T/C [20] 1.01% | viability, T/C [21] 0.13% | viability, T/C [22] 0.11% | viability, T/C [23] 2.81% | viability, T/C [24] 6.86% | viability, T/C [25] 0.14% | viability, T/C [26] 0.96% | viability, T/C [27] 1.03% | viability, T/C [28] 0.15% | viability, T/C [29] 0.83% | viability, T/C [30] 7.28% | viability, T/C [31] 0.46% | viability, T/C [32] 1.26% | viability, T/C [33] 0.8% | viability, T/C [34] 0.22% | viability, T/C [35] 2.33% | viability, T/C [36] 7.23%
inactive: viability, T/C [1] 100% | viability, T/C [2] 38.9% | viability, T/C [3] 33.2% | viability, T/C [7] 44.3% | viability, T/C [8] 35.4% | viability, T/C [9] 21.1%
